Results reported in US10112926B2 (priority 2014, dated 2018).
Counter-ions that a name gives are not always drawn.

How the values were obtained:
[1] = biological target: Vps34 (Homo sapiens (Human), UniProt Q8NEB9); conditions: read-out: Assay C VPS34 IC50
[2] = biological target: PI 4-kinase beta (Homo sapiens (Human), UniProt Q9UBF8); conditions: read-out: Assay D PI4Kβ IC50
Chain of PI 4-kinase beta (Q9UBF8 whole entry): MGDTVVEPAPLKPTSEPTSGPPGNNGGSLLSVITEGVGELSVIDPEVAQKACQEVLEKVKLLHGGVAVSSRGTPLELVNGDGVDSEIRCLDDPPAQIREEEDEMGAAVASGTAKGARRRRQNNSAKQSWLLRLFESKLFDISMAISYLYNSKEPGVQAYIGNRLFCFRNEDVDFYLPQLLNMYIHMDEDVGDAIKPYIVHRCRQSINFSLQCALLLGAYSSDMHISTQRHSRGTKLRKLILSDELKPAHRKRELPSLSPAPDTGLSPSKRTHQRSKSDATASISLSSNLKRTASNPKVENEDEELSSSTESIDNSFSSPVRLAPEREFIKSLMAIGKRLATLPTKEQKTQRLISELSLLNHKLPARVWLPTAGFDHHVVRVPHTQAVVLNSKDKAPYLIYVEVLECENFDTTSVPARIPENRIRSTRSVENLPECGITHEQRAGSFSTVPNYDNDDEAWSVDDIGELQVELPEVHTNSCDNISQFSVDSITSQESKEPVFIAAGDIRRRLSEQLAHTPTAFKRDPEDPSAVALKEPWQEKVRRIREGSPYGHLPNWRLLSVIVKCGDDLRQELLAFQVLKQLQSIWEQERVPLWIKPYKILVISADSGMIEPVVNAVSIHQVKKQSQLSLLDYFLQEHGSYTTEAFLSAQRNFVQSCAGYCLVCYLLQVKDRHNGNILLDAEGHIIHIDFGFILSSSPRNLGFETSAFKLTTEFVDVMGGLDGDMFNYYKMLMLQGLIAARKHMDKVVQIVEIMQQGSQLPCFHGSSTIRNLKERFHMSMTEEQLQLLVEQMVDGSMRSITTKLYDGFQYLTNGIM

Chain of Vps34 (Q8NEB9 whole entry): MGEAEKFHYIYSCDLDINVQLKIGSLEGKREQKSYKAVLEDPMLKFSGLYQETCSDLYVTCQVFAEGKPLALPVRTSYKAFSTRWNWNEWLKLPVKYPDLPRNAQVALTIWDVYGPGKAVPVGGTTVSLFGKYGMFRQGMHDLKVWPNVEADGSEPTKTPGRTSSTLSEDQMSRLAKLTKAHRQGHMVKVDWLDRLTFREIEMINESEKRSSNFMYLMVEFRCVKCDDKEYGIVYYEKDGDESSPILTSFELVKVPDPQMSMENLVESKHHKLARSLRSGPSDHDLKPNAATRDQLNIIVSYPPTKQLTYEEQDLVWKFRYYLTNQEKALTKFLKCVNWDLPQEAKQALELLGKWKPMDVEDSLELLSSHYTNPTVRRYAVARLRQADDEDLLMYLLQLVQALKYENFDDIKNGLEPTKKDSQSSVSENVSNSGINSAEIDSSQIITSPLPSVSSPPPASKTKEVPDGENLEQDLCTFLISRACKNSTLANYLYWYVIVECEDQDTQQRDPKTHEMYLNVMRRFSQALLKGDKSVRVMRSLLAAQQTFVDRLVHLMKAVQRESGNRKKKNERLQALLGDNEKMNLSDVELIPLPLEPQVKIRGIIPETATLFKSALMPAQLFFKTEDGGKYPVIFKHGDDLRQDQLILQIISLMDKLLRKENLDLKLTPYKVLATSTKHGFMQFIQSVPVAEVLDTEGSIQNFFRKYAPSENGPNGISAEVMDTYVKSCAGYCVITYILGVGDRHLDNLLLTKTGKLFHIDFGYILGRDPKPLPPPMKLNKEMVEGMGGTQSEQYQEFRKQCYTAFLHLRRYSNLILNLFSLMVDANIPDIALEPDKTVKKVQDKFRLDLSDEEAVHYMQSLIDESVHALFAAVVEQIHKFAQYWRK

| Structure (SMILES) | IC50 [1] | IC50 [2] |
| --- | --- | --- |
| Cc1ccc(S(=O)(=O)NCCC(C)(C)O)cc1-c1cnc(N)c(-c2cnn(CC(F)(F)F)c2)c1 [Example 3, 3-(6-Amino-5-(1-(2,2,2-trifluoroethyl)-1H-pyrazol-4-yl)pyridin-3-yl)-N-(3-hydroxy-3-methylbutyl)-4-methylbenzenesulfonamide] | > 9.1 µM | 1.08 µM |
| Cc1noc(-c2cc(-c3cc(S(=O)(=O)NCC(C)(C)O)ccc3C)cnc2N)n1 [Example 10, 3-(6-Amino-5-(3-methyl-1,2,4-oxadiazol-5-yl)pyridin-3-yl)-N-(2-hydroxy-2-methylpropyl)-4-methylbenzenesulfonamide, hydrochloride salt] | > 9.8 µM | > 9.8 µM |
| Cc1cc(-c2cc(-c3cc(S(=O)(=O)NC4CCOC4=O)ccc3C)cnc2N)on1 (stereo not shown) [Example 19.2, 3-(6-amino-5-(3-methylisoxazol-5-yl)pyridin-3-yl)-4-methyl-N-(2-oxotetrahydrofuran-3-yl)benzene sulfonamide trifluoroacetic acid salt] | > 10 µM | 3.7 µM |
| Cc1cc(-c2cc(-c3cc(S(=O)(=O)NCCC4CCOCC4)ccc3C)cnc2N)on1 [Example 19.12, 3-(6-amino-5-(3-methylisoxazol-5-yl)pyridin-3-yl)-4-methyl-N-(2-(tetrahydro-2H-pyran-4-yl)ethyl)benzenesulfon-amide trifluoroacetic acid salt] | > 10 µM | 4.3 µM |
| Cc1cc(-c2cc(-c3cc(S(=O)(=O)N[C@@H](C)C4CC4)ccc3C)cnc2N)on1 [Example 19.13, (S)-3-(6-amino-5-(3-methylisoxazol-5-yl)pyridin-3-yl)-N-(1-cyclopropylethyl)-4-methylbenzenesulfon-amide trifluoroacetic acid salt] | > 10 µM | 1.6 µM |
| Cc1cc(-c2cc(-c3cc(S(=O)(=O)N[C@H]4CCC[C@H](O)C4)ccc3C)cnc2N)on1 [Example 19.16, 3-(6-amino-5-(3-methylisoxazol-5-yl)pyridin-3-yl)-N-((1S,3S)-3-hydroxycyclohexyl)-4-methylbenzenesulfon-amide trifluoroacetic acid salt] | > 10 µM | 1.5 µM |
| COCC1CCN(S(=O)(=O)c2ccc(C)c(-c3cnc(N)c(-c4cc(C)no4)c3)c2)CC1 [Example 19.18, 5-(5-((4-(methoxymethyl)piperidin-1-yl)sulfonyl)-2-methylphenyl)-3-(3-methylisoxazol-5-yl)pyridin-2-amine trifluoroacetic acid salt] | – | 3.8 µM |
| COC[C@@H]1COCCN1S(=O)(=O)c1ccc(C)c(-c2cnc(N)c(-c3cc(C)no3)c2)c1 [Example 19.20, (R)-5-(5-((3-(methoxymethyl)morpho-lino)sulfonyl)-2-methylphenyl)-3-(3-methylisoxazol-5-yl)pyridin-2-amine trifluoroacetic acid salt] | – | 4.2 µM |
| Cc1cc(-c2cc(-c3cc(S(=O)(=O)NCC4COC4)ccc3C)cnc2N)on1 [Example 25, 3-(6-Amino-5-(3-methylisoxazol-5-yl)pyridin-3-yl)-4-methyl-N-(oxetan-3-ylmethyl)benzenesulfonamide] | > 10 µM | 1.3 µM |
| Cc1cc(-c2cc(-c3cc(S(=O)(=O)NC4CC4)ccc3C)cnc2N)on1 [Example 31, 3-(6-Amino-5-(3-methylisoxazol-5-yl)pyridin-3-yl)-N-cyclopropyl-4-methylbenzenesulfonamide] | > 10 µM | 1.26 µM |
| Cc1ncc(-c2cc(-c3cc(S(N)(=O)=O)ccc3C)cnc2N)o1 [Example 33, 3-(6-Amino-5-(2-methyloxazol-5-yl)pyridin-3-yl)-4-methylbenzenesulfonamide] | 3.9 µM | 4.45 µM |
| Cc1ccc(S(=O)(=O)N[C@H]2CC[C@H](O)CC2)cc1-c1cnc(N)c(-c2cc(C(C)(C)C)no2)c1 [Example 35.2, trans-3-(6-Amino-5-(3-(tert-butyl)isoxazol-5-yl)pyridin-3-yl)-N-(−4-hydroxycyclohexyl)-4-methylbenzenesulfonamide hydrochloride] | > 10 µM | 0.63 µM |
| Cc1ccc(S(=O)(=O)NCC(C)(C)O)cc1-c1cnc(N)c(-c2cc(C3CC3)no2)c1 [Example 35.3, 3-(6-Amino-5-(3-cyclopropylisoxazol-5-yl)pyridin-3-yl)-N-(2-hydroxy-2-methylpropyl)-4-methylbenzenesulfonamide hydrochloride] | > 10 µM | 1.3 µM |
| Cc1cc(-c2cc(-c3cc(S(=O)(=O)NCC4(CO)CCOCC4)ccc3C)cnc2N)on1 [Example 37.1, 3-(6-Amino-5-(3-methylisoxazol-5-yl)pyridin-3-yl)-N-((4-(hydroxymethyl)tetrahydro-2H-pyran-4-yl)methyl)-4-methylbenzenesulfonamide] | – | 3.5 µM |
| Cc1cc(-c2cc(-c3cc(S(=O)(=O)N[C@@H]4CCNC(=O)C4)ccc3C)cnc2N)on1 [Example 37.4, (R)-3-(6-Amino-5-(3-methylisoxazol-5-yl)pyridin-3-yl)-4-methyl-N-(2-oxopiperidin-4-yl)benzenesulfonamide] | > 10 µM | 2.4 µM |
| Cc1noc(-c2cc(-c3cc(S(=O)(=O)NC[C@H]4CCCO4)ccc3C)cnc2N)n1 [Example 37.5, (R)-3-(6-Amino-5-(3-methyl-1,2,4-oxadiazol-5-yl)pyridin-3-yl)-4-methyl-N-((tetrahydrofuran-2-yl)methyl)benzenesulfonamide] | – | 8 µM |

| Structure (SMILES) | IC50 [1] | IC50 [2] |
| --- | --- | --- |
| Cc1cc(-c2cc(-c3cc(S(=O)(=O)NCC4(CO)CCC4)ccc3C)cnc2N)on1 [Example 37.6, 3-(6-Amino-5-(3-methylisoxazol-5-yl)pyridin-3-yl)-N-((1-(hydroxymethyl)cyclobutyl)methyl)-4-methylbenzenesulfonamide] | > 10 µM | 2.2 µM |
| Cc1noc(-c2cc(-c3cc(S(=O)(=O)NCC4(CO)CCOCC4)ccc3C)cnc2N)n1 [Example 37.10, 3-(6-Amino-5-(3-methyl-1,2,4-oxadiazol-5-yl)pyridin-3-yl)-N-((4-(hydroxymethyl)tetrahydro-2H-pyran-4-yl)methyl)-4-methylbenzenesulfonamide] | > 10 µM | > 10 µM |
| Cc1cc(-c2cc(-c3cc(S(=O)(=O)N4CC(CO)C4)ccc3C)cnc2N)on1 [Example 37.12, (1-((3-(6-Amino-5-(3-methylisoxazol-5-yl)pyridin-3-yl)-4-methylphenyl)sulfonyl)azetidin-3-yl)methanol] | > 10 µM | 3.4 µM |
| COC1(C)CN(S(=O)(=O)c2ccc(C)c(-c3cnc(N)c(-c4cc(C)no4)c3)c2)C1 [Example 37.20, 5-(5-((3-Methoxy-3-methylazetidin-yl)sulfonyl)-2-methylphenyl)-3-(3-methylisoxazol-5-yl)pyridin-2-amine] | – | 5.1 µM |
| Cc1noc(-c2cc(-c3cc(S(=O)(=O)NC(CO)C4CCOC4)ccc3C)cnc2N)n1 (stereo not shown) [Example 37.21, 3-(6-Amino-5-(3-methyl-1,2,4-oxadiazol-5-yl)pyridin-3-yl)-N-(2-hydroxy-1-(tetrahydrofuran-3-yl)ethyl)-4-methylbenzenesulfonamide] | – | > 10 µM |
| Cc1noc(-c2cc(-c3cc(S(=O)(=O)N4CC[C@H](O)C4)ccc3C)cnc2N)n1 [Example 37.32, (S)-1-((3-(6-Amino-5-(3-methyl-1,2,4-oxadiazol-5-yl)pyridin-3-yl)-4-methylphenyl)sulfonyl)pyrrolidin-3-ol hydrochloride] | – | 8.5 µM |
| Cc1noc(-c2cc(-c3cc(S(=O)(=O)NC4CCN(C(C)C)CC4)ccc3C)cnc2N)n1 [Example 37.34, 3-(6-Amino-5-(3-methyl-1,2,4-oxadiazol-5-yl)pyridin-3-yl)-N-(1-isopropylpiperidin-4-yl)-4-methylbenzenesulfonamide] | – | > 10 µM |
| Cc1noc(-c2cc(-c3cc(S(=O)(=O)NCC(C)(F)F)ccc3C)cnc2N)n1 [Example 37.38, 3-(6-Amino-5-(3-methyl-1,2,4-oxadiazol-5-yl)pyridin-3-yl)-N-(2,2-difluoropropyl)-4-methylbenzenesulfonamide] | – | 7.5 µM |
| Cc1ccc(S(=O)(=O)NCC(C)(C)O)cc1-c1cnc(N)c(-c2cc(C(=O)N3CCOCC3)no2)c1 [Example 42, 3-(6-Amino-5-(3-(morpholine-4-carbonyl)isoxazol-5-yl)pyridin-3-yl)-N-(2-hydroxy-2-methylpropyl)-4-methylbenzenesulfonamide] | – | 2.9 µM |
| CONS(=O)(=O)c1ccc(C)c(-c2cnc(N)c(-c3nc(C)no3)c2)c1 [Example 46, 3-(6-Amino-5-(3-methyl-1,2,4-oxadiazol-5-yl)pyridin-3-yl)-N-methoxy-4-methylbenzenesulfonamide] | – | > 10 µM |
| Cc1ccc(S(=O)(=O)NCC(C)(C)O)cc1-c1cnc(N)c(-c2ccn(C)c2)c1 [Example 58, 3-(6-Amino-5-(1-methyl-1H-pyrrol-3-yl)pyridin-3-yl)-N-(2-hydroxy-2-methylpropyl)-4-methylbenzenesulfonamide hydrochloride] | – | 3.2 µM |
| Cc1noc(-c2cc(-c3cc(S(N)(=O)=O)ccc3C)cnc2N)n1 [Example 75, 3-(6-Amino-5-(3-methyl-1,2,4-oxadiazol-5-yl)pyridin-3-yl)-4-methylbenzenesulfonamide] | – | > 10 µM |
| Cc1ncc(-c2cc(-c3cc(S(=O)(=O)NCC(C)(C)CO)ccc3C)cnc2N)o1 [Example 104.2, 3-(6-amino-5-(2-methyloxazol-5-yl)pyridin-3-yl)-N-(3-hydroxy-2,2-dimethylpropyl)-4-methylbenzenesulfon-amide] | – | 1.1 µM |
| Cc1ncc(-c2cc(-c3cc(S(=O)(=O)NCCO)ccc3C)cnc2N)o1 [Example 104.5, 3-(6-amino-5-(2-methyloxazol-5-yl)pyridin-3-yl)-N-(2-hydroxyethyl)-4-methylbenzenesulfon-amide] | – | 3.1 µM |
| Cc1ncc(-c2cc(-c3cc(S(=O)(=O)NCC4CC4)ccc3C)cnc2N)o1 [Example 104.12, 3-(6-amino-5-(2-methyloxazol-5-yl)pyridin-3-yl)-N-(cyclopropylmethyl)-4-methylbenzenesulfon-amide] | – | 2.1 µM |
